Experimental data: ChEMBL document CHEMBL1921722, “In vitro and in vivo evaluation of select kahalalide F analogs with antitumor and antifungal activities” (Bioorg Med Chem, 2011)
The source made the active and inactive calls. The rule behind the calls is not given here.

Legend:
[1] = test system: CCRF-CEM; assay: Cytotoxicity against human CCRF-CEM cells assessed as cell growth at 8 uM by sulforhodamine B assay relative to control; type: functional; conditions: read-out: Activity
[2] = test system: NCI-H522; assay: Antitumor activity against human NCI-H522 cells xenografted in mouse assessed as tumor cell killing at 3.1 mg/kg, ip qd for 4 days by MTT assay; type: functional, organism-based; design: dose 3.1 mg/kg
[3] = test system: OVCAR-5; assay: Antitumor activity against human OVCAR5 cells xenografted in mouse assessed as tumor cell killing at 3.1 mg/kg, ip qd for 4 days by MTT assay; type: functional, organism-based; design: dose 3.1 mg/kg
[4] = test system: CAKI-1; assay: Cytotoxicity against human Caki1 cells assessed as cell growth at 80 uM by sulforhodamine B assay relative to control; type: functional; conditions: read-out: Activity

SMILES | growth at 8 µM [1] | Activity [2] | Activity [3] | growth at 80 µM [4]
C/C=C1\NC(=O)[C@H](Cc2ccccc2)NC(=O)[C@@H](C(C)C)NC(=O)[C@@H]([C@@H](C)CC)NC(=O)[C@H](NC(=O)[C@H](NC(=O)[C@H](CCCNCc2ccc(N3CCOCC3)cc2)NC(=O)[C@H]2CCCN2C(=O)[C@H](NC(=O)[C@@H](NC(=O)[C@@H](NC(=O)[C@H](NC(=O)CCCC(C)C)C(C)C)[C@@H](C)O)C(C)C)C(C)C)[C@@H](C)CC)[C@@H](C)OC(=O)[C@H](C(C)C)NC1=O | 82% | – | – | –
C/C=C1\NC(=O)[C@H](Cc2ccccc2)NC(=O)[C@@H](C(C)C)NC(=O)[C@@H]([C@@H](C)CC)NC(=O)[C@H](NC(=O)[C@H](NC(=O)[C@H](CCCNCc2ccc(F)c(C)c2)NC(=O)[C@H]2CCCN2C(=O)[C@H](NC(=O)[C@@H](NC(=O)[C@@H](NC(=O)[C@H](NC(=O)CCCC(C)C)C(C)C)[C@@H](C)O)C(C)C)C(C)C)[C@@H](C)CC)[C@@H](C)OC(=O)[C@H](C(C)C)NC1=O | – | inactive | inactive | -56%
